From US8513232B2, “Substituted spirocyclic piperidine derivatives as histamine-3 (H3) receptor ligands” (Cephalon, Inc., priority 2008, dated 2013) come the findings set out here.

For series [1], the target named is T1, rat histamine H3 receptor (Rattus norvegicus, UniProt Q9QYN8).
T1 construct: encoding the entire 445-amino-acid rat histamine H3 receptor; expressed in transfected cells; membrane preparation
Description: Rat H3 radioligand binding ([3H]-N-alpha-methylhistamine, SPA). The method, boiled down: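 SPA-bead binding assay using [3H]-N-alpha-methylhistamine (approximately 1 nM final) with test compounds from 0.01 nM to 30 μM. Rat H3 receptor membranes came from stably transfected CHO-A3 cells; incubation ran 4 h at room temperature, in the dark, in Tris pH 7.4 buffer with MgCl2 and BSA. Clobenpropit (10 μM) gave non-specific binding.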

The target in series [2] is T2, human H3 receptor (Homo sapiens, UniProt Q9Y5N1).
T2 construct: expressed in transfected cells
T2 sequence (Q9Y5N1 whole entry): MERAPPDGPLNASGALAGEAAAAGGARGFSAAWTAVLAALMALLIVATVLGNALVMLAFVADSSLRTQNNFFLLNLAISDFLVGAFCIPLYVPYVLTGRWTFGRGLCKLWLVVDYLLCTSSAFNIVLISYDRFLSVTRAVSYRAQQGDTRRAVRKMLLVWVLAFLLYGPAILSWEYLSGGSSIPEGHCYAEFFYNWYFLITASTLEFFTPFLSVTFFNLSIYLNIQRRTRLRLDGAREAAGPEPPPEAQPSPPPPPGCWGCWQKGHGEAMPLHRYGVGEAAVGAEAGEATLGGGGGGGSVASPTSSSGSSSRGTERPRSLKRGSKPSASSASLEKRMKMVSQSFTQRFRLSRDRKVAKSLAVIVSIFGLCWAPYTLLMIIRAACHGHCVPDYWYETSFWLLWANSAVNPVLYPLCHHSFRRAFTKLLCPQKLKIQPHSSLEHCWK
Description: Human H3 radioligand binding ([3H]-N-alpha-methylhistamine, SPA). The following applies: read-out: Human H3 Ki. The method, boiled down: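 Compounds (0.01 nM-30 μM) competed with approximately 1 nM [3H]-N-alpha-methylhistamine for human H3 receptor in membranes of stably transfected CHO cells, 10 μg protein per well, in Tris-HCl pH 7.4/MgCl2/BSA buffer for 4 h at room temperature. Bound radioligand measured by scintillation proximity; 10 μM clobenpropit gave non-specific binding.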

[3] abbreviates: Table C, rat H3 binding, read-out: Rat H3 Ki.

Several values for one entry are separate records, joined by “and”; a condition that tells them apart may be missing. Equal entries are not always repeated. Where two headings read alike, the source gives them in different places.

T1 sequence (Q9QYN8 whole entry): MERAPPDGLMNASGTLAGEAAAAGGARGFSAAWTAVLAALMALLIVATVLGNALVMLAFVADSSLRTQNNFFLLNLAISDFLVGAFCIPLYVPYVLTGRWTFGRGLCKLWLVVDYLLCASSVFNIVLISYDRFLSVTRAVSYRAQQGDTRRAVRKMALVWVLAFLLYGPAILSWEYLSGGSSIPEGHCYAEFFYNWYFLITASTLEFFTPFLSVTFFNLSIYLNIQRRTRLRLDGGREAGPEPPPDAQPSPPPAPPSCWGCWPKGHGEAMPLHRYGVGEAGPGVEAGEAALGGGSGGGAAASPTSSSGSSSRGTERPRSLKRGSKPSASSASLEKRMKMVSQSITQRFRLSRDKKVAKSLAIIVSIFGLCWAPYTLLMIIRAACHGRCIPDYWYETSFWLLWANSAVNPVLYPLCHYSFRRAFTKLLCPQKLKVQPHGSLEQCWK

On to `CCS(=O)(=O)N1CCC(Oc2ccc3c(c2)CCC2(CCN(C4CCC4)CC2)O3)CC1` [Example 441], for which the melting point (in general, the temperature of the solid-liquid transition) was in the range of 226 to 229 °C. Also, the Ki (as a rule, a measure of affinity in units of concentration, obtained from inhibition or displacement) in series [1] (setting [3]) was less than 200 nM. Besides, the Ki in series [2] (Table C, human H3 binding) was less than 200 nM.

In turn, `CC(C)(C)OC(=O)N1CC[C@@H](Oc2ccc3c(c2)CCC2(CCN(C4CCC4)CC2)O3)C1` [Example 442] showed a melting point of 280 to 283 °C. Also, the Ki in series [1] (setting [3]) is less than 200 nM. In addition, the Ki in series [2] (Table C, human H3 binding) was less than 200 nM.

The compound `c1cc2c(cc1O[C@@H]1CCOC1)CCC1(CCN(C3CCC3)CC1)O2` [Example 443] displayed a melting point of 261 to 263 °C. Moreover, the Ki in series [1] (setting [3]) fell in the range of 200 to 1000 nM. In addition, the Ki in series [2] (Table C, human H3 binding) is less than 200 nM.

The compound `c1cc2c(cc1OCC1CC1)CCC1(CCN(C3CCC3)C1)O2` (stereo not drawn) [Example 446] returned a melting point of 177 to 178 °C. The Ki in series [1] (read-out: Rat H3 kI) was 200 to 1000 nM. Also, in series [2], the Ki lay in the range of 200 to 1000 nM.

Take `O=C(OCc1ccccc1)N1CC=C(c2ccc3c(c2)CCC2(CCN(C4CCC4)CC2)O3)CC1` [Example 447]: the melting point lay in the range of 237 to 239 °C. In series [1] (read-out: Rat H3 kI), the Ki is less than 200 nM. For the same compound, the Ki in series [2] was less than 200 nM.

Compound `Cn1cc2c(n1)CCC(c1ccc3c(c1)CCC1(CCN(C4CCC4)CC1)O3)=C2` [Example 448] returned a melting point of 205 to 208 °C. Further, the Ki in series [1] (read-out: Rat H3 kI) was less than 200 nM. Further, the Ki in series [2] was less than 200 nM.

Compound `c1cc2c(cc1O[C@H]1CCOC1)CCC1(CCN(C3CCC3)CC1)O2` [Example 450] displayed a melting point of 259 to 261 °C. For the same compound, in series [1] (read-out: Rat H3 kI), the Ki is less than 200 nM. In addition, in series [2], the Ki was less than 200 nM.

`O=C(C1CCCN(c2ccc3c(c2)CCC2(CCN(C4CCC4)CC2)O3)C1)N1CCCC1` (stereo not drawn) [Example 451] returned a melting point of 305 to 307 °C. In addition, the Ki in series [1] (read-out: Rat H3 kI) is less than 200 nM. The Ki in series [2] was less than 200 nM.

As for `c1cc2c(cc1C1CCNCC1)CCC1(CCN(C3CCC3)CC1)O2` [Example 452], the melting point is 88 to 90 °C. In series [1] (read-out: Rat H3 kI), the Ki is less than 200 nM. The Ki in series [2] is less than 200 nM.

Consider `CNC(=O)C1CCN(c2ccc3c(c2)COC2(CCN(C4CCC4)CC2)O3)CC1` [Example 453], for which the melting point is > 245 °C (dec.). For the same compound, the Ki in series [1] (read-out: Rat H3 kI) was less than 200 nM. The Ki in series [2] was less than 200 nM.

As to `c1cc(-c2ccc3c(c2)CCC2(CCN(C4CCC4)CC2)O3)cs1` [Example 454], the melting point lay within 110 to 112 °C. The Ki in series [1] (read-out: Rat H3 kI) is less than 200 nM. Also, the Ki in series [2] was less than 200 nM.

`CCOC(=O)C1CC=C(c2ccc3c(c2)CCC2(CCN(C4CCC4)CC2)O3)CC1` (stereo not drawn) [Example 455]: the melting point was 137 to 139 °C. In addition, in series [1] (read-out: Rat H3 kI), the Ki was less than 200 nM. Moreover, the Ki in series [2] was less than 200 nM.

Regarding `CCOC(=O)C1CCC(Oc2ccc3c(c2)CCC2(CCN(C4CCC4)CC2)O3)CC1` (stereo not drawn) [Example 456], the melting point fell in the range of 236 to 238 °C. For the same compound, in series [1] (read-out: Rat H3 kI), the Ki was less than 200 nM. The Ki in series [2] is less than 200 nM.

`O=C1CCCN1CCOc1ccc2c(c1)CCC1(CCN(C3CCC3)CC1)O2` [Example 458] showed a melting point of 170 to 172 °C. The Ki in series [1] (read-out: Rat H3 kI) is less than 200 nM. Moreover, the Ki in series [2] is less than 200 nM.

`Cn1cc2c(n1)CCC(c1ccc3c(c1)COC1(CCN(C4CCC4)CC1)O3)=C2` [Example 459]: the melting point was 149 to 150 °C. Also, the Ki in series [1] (read-out: Rat H3 kI) is less than 200 nM. In series [2], the Ki is less than 200 nM.

In turn, `O=C1CCC(=O)N1CCCOc1ccc2c(c1)CCC1(CCN(C3CCC3)CC1)O2` [Example 460] returned a melting point of 235 to 237 °C. In series [1] (read-out: Rat H3 kI), the Ki was less than 200 nM. In addition, the Ki in series [2] is less than 200 nM.

`[O-][S+]1CC=C(c2ccc3c(c2)COC2(CCN(C4CCC4)CC2)O3)CC1` (stereo not drawn) [Example 461] showed a melting point of 155 to 158 °C. For the same compound, the Ki in series [1] (read-out: Rat H3 kI) was less than 200 nM. The Ki in series [2] is less than 200 nM.

`O=C1CCCN1CCCOc1ccc2c(c1)CCC1(CCN(C3CCC3)CC1)O2` [Example 462] registered a melting point of 196 to 198 °C. Further, the Ki in series [1] (read-out: Rat H3 kI) was less than 200 nM. Besides, in series [2], the Ki was less than 200 nM.

`c1cc2c(cc1OCC1CCOC1)CCC1(CCN(C3CCC3)CC1)O2` (stereo not drawn) [Example 463] showed a melting point of 97 to 99 °C. For the same compound, in series [1] (read-out: Rat H3 kI), the Ki is less than 200 nM. In series [2], the Ki was less than 200 nM.

With `OC1(c2ccc3c(c2)COC2(CCN(C4CCC4)CC2)O3)CCSCC1` [Example 465], the melting point was 174 to 176 °C. Besides, the Ki in series [1] (read-out: Rat H3 kI) was less than 200 nM. Also, the Ki in series [2] is less than 200 nM.

In the case of `C1=C(c2ccc3c(c2)COC2(CCN(C4CCC4)CC2)O3)CCSC1` [Example 466], the melting point was 162 to 163 °C. In addition, the Ki in series [1] (read-out: Rat H3 kI) is less than 200 nM. Also, the Ki in series [2] was less than 200 nM.

For `O=S1(=O)CCC(Oc2ccc3c(c2)CCC2(CCN(C4CCC4)CC2)O3)CC1` [Example 467], the melting point was 239 to 241 °C and 239 to 240 °C. Further, the Ki in series [1] (read-out: Rat H3 kI) is less than 200 nM. Besides, the Ki in series [2] is less than 200 nM.

In the case of `O=C(C1CCN(c2ccc3c(c2)COC2(CCN(C4CCC4)CC2)O3)CC1)N1CCOCC1` [Example 468], the melting point was in the range of 282 to 284 °C. For the same compound, in series [1] (read-out: Rat H3 kI), the Ki was less than 200 nM. In series [2], the Ki was less than 200 nM.

Take `Cn1cc2c(n1)CCC(c1ccc3c(c1)COC1(CCN(C4CCC4)CC1)O3)C2` (stereo not drawn) [Example 469]: the melting point lay within 138 to 140 °C. Further, the Ki in series [1] (read-out: Rat H3 kI) was less than 200 nM. The inhibition constant Ki in series [2] is less than 200 nM.

`COc1cnc(-c2ccc3c(c2)COC2(CCN(C4CCC4)CC2)O3)nc1` [Example 470] displayed a melting point of 113 to 115 °C. In series [1] (read-out: Rat H3 kI), the Ki was less than 200 nM. Further, in series [2], the Ki was less than 200 nM.

For the compound `OC1(c2ccc3c(c2)COC2(CCN(C4CCC4)CC2)O3)CCSC1` (stereo not drawn) [Example 471], the melting point lay within 125 to 126 °C. In addition, the Ki in series [1] (read-out: Rat H3 kI) was less than 200 nM. In series [2], the Ki is less than 200 nM.

`[O-][S+]1CC=C(c2ccc3c(c2)COC2(CC[N+]([O-])(C4CCC4)CC2)O3)CC1` (stereo not drawn) [Example 472]: the melting point was 130 to 133 °C. Besides, in series [1] (read-out: Rat H3 kI), the Ki was less than 200 nM. In addition, in series [2], the Ki is less than 200 nM.

`[O-][S+]1CCC(c2ccc3c(c2)COC2(CCN(C4CCC4)CC2)O3)CC1` (stereo not drawn) [Example 473] had a melting point of 187 to 189 °C. Besides, in series [1] (read-out: Rat H3 kI), the Ki was less than 200 nM. Besides, the Ki in series [2] is less than 200 nM.

Compound `O=c1cc(-c2ccc3c(c2)COC2(CCN(C4CCC4)CC2)O3)cc[nH]1` [Example 475] gave a melting point of 211 to 213 °C. In series [1] (read-out: Rat H3 kI), the Ki was less than 200 nM. The Ki in series [2] is less than 200 nM.

The compound `O=c1cccc(-c2ccc3c(c2)COC2(CCN(C4CCC4)CC2)O3)[nH]1` [Example 476] had a melting point of 207 to 209 °C. Moreover, the Ki in series [1] (read-out: Rat H3 kI) is less than 200 nM. For the same compound, the Ki in series [2] is less than 200 nM.

On to `OC1(c2ccc3c(c2)COC2(CCN(C4CCC4)CC2)O3)CCOCC1` [Example 477], for which the melting point lay in the range of 157 to 159 °C. The Ki in series [1] (read-out: Rat H3 kI) is less than 200 nM. The Ki in series [2] was less than 200 nM.

`C1=C(c2ccc3c(c2)COC2(CCN(C4CCC4)CC2)O3)CCOC1` [Example 478] returned a melting point of 168 to 169 °C. Also, the Ki in series [1] (read-out: Rat H3 kI) was less than 200 nM. In series [2], the Ki is less than 200 nM.

With `c1cc2c(cc1C1CCOCC1)COC1(CCN(C3CCC3)CC1)O2` [Example 479], the melting point lay within 249 to 251 °C. Further, the inhibition constant Ki in series [1] (read-out: Rat H3 kI) is less than 200 nM. Further, the Ki in series [2] is less than 200 nM.
